Laboratory results as given in US20240101546A1, “HETEROARYL-ACETYLENES, PHARMACEUTICAL COMPOSITIONS THEREOF, AND THEIR THERAPEUTIC APPLICATIONS” (Eubulus Biotherapeutics Inc., priority 2020, published 2024).

Tested on: hepatocellular carcinoma cell line Hub-7
Test: Cell proliferation assay, Hub-7 (CELL-TITER GLO)
Format: cell-based
Details: Hub-7 cells, 24 h incubation, cell viability by CELL-TITER GLO, top concentration 10 μM; read-out: EC50, Inhibition of Hub-7 Cell Proliferation
Summary of the method: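 Hub-7 cells, 4,000 per well, seeded overnight, then exposed 24 h to compound from 10 μM top in 3-fold serial dilution. Viability read by CELL-TITER GLO luminescence; EC50 derived and binned into potency categories.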

SMILES | EC50 [nM]
C#Cc1nc(C(=O)NCCc2ccc(-c3cccnc3)cc2)cs1 [Compound C79, 2-Ethynyl-N-(4-(pyridin-3-yl)phenethyl)thiazole-4-carboxamide] | 200 to 1000
C#Cc1nc(NC(=O)NCc2ccc(-c3cccc4c3S(=O)(=O)CC4=O)cc2)cs1 [Compound A3, 1-(4-(1,1-Dioxido-3-oxo-2,3-dihydrobenzo[b]thiophen-7-yl)benzyl)-3-(2-ethynyl-thiazol-4-yl)urea] | 1000 to 5000
C#Cc1nc(C(=O)NCCc2cccc([N+](=O)[O-])c2)cs1 [Compound C87, 2-Ethynyl-N-(3-nitrophenethyl)thiazole-4-carboxamide] | 200 to 1000
C#Cc1nc(NC(=O)N2Cc3ccc(-c4cccc5ncsc45)cc3C2)cs1 [Compound B4, 5-(Benzo[d]thiazol-7-yl)-N-(2-ethynylthiazol-4-yl)isoindoline-2-carboxamide] | 200 to 1000
C#Cc1nc(C(=O)NCc2ccccc2-c2ccccc2)cs1 [Compound C112, N-([1,1′-Biphenyl]-2-ylmethyl)-2-ethynylthiazole-4-carboxamide] | 200 to 1000
C#Cc1nc(C(=O)NCCc2cccc(-c3cccc4[nH]ccc34)c2)cs1 [Compound C36, N-(3-(1H-Indol-4-yl)phenethyl)-2-ethynylthiazole-4-carboxamide] | 200 to 1000
C#Cc1nc(C(=O)NC2(c3cccc(Cl)c3)CC2)cs1 [Compound C68, N-(1-(3-Chlorophenyl)cyclopropyl)-2-ethynylthiazole-4-carboxamide] | 200 to 1000
C#Cc1nc(C(=O)NCc2cccc(CC(N)=O)c2)cs1 [Compound C47, N-(3-(2-Amino-2-oxoethyl)benzyl)-2-ethynylthiazole-4-carboxamide] | 1000 to 5000
C#Cc1nc(C(=O)NCc2ccc(N)cc2)cs1 [Compound C118, N-(4-Aminobenzyl)-2-ethynylthiazole-4-carboxamide] | 200 to 1000
C#Cc1nc(C(=O)NCc2ccc3ccccc3c2)cs1 [Compound C64, 2-Ethynyl-N-(naphthalen-2-ylmethyl)thiazole-4-carboxamide] | ≤ 200
C#Cc1nc(NC(=O)NCc2ccc(-c3cccc(C(N)=O)c3)cc2)cs1 [Compound A10, 4′-((3-(2-Ethynylthiazol-4-yl)ureido)methyl)-[1,1′-biphenyl]-3-carboxamide] | 200 to 1000
C#Cc1nc(NC(=O)NCc2ccc(-c3cccc(N4CC[C@H](O)C4)c3)cc2)cs1 [Compound A5, (S)-1-(2-Ethynylthiazol-4-yl)-3-((3′-(3-hydroxypyrrolidin-1-yl)-[1,1′-biphenyl]-4-yl)methyl)urea] | 200 to 1000
C#Cc1nc(C(=O)NCc2ccc3ccccc3n2)cs1 [Compound C44, 2-ethynyl-N-(quinolin-2-ylmethyl)thiazole-4-carboxamide] | ≤ 200

Continued, values first:

EC50 [nM] | SMILES
> 5000 | C#Cc1nc(C(=O)N2CCC(O)CC2)cs1 [Compound D31, (2-Ethynylthiazol-4-yl)(4-hydroxypiperidin-1-yl)methanone]
≤ 200 | C#Cc1nc(C(=O)N2CCC(c3ccc(-c4cccc5c4cnn5C)cc3)CC2)cs1 [Compound D20, (2-Ethynylthiazol-4-yl)(4-(4-(1-methyl-1H-indazol-4-yl)phenyl)piperidin-1-yl)-methanone]
200 to 1000 | C#Cc1nc(C(=O)NCCc2cccc(-c3cncs3)c2)cs1 [Compound E6, 2-Ethynyl-N-(3-(thiazol-5-yl)phenethyl)thiazole-4-carboxamide]
1000 to 5000 | C#Cc1nc(C(=O)NCCc2cccc(-c3cscn3)c2)cs1 [Compound E7, 2-Ethynyl-N-(3-(thiazol-4-yl)phenethyl)thiazole-4-carboxamide]
≤ 200 | C#Cc1nc(C(=O)N2CCN(c3ccc(-c4cc(C(=O)OC)cc5ncsc45)cc3)CC2)cs1 [Compound D4, Methyl 7-(4-(4-(2-ethynylthiazole-4-carbonyl)piperazin-1-yl)phenyl)benzo[d]-thiazole-5-carboxylate]
200 to 1000 | C#Cc1nc(NC(=O)CCc2ccc(-c3cccc4ncsc34)cc2)cs1 [Compound E1, 3-(4-(benzo[d]thiazol-7-yl)phenyl)-N-(2-ethynylthiazol-4-yl)propanamide]
